ChEMBL document CHEMBL5550130, “Discovery of harmiprims, harmine-primaquine hybrids, as potent and selective anticancer and antimalarial compounds” (Bioorg Med Chem, 2024)
Calls of active or inactive are those of the source. No cut-off for these calls is given here.

Test system: SW-620
Experiment: Antiproliferative activity against human SW620 cells assessed as reduction in cell viability incubated for 72 hrs by MTT assay
Format: functional, cell-based
Conditions: SW-620, 72 h

Structure (SMILES) | IC50
COc1cc(NC(C)CCCNC(=O)NCc2cc3c([nH]c4ccccc43)c(C)n2)c2ncccc2c1 (stereo not drawn) | 25 µM
COc1cc(NC(C)CCCN)c2ncccc2c1 (stereo not drawn) [PRIMAQUINE] | 9.2 µM
COc1cc(NC(C)CCCn2cc(Cn3c4cc(OC)ccc4c4ccnc(C)c43)nn2)c2ncccc2c1 (stereo not drawn) | > 50 µM
COc1cc(NC(C)CCCNC(=O)NCCOc2ccc3[nH]c4c(C)nccc4c3c2)c2ncccc2c1 (stereo not drawn) | 10.6 µM

Test system: HepG2
Experiment: Antiproliferative activity against human HepG2 cells assessed as reduction in cell viability incubated for 72 hrs by MTT assay
Format: functional, cell-based
Conditions: HepG2, 72 h

Structure (SMILES) | IC50
COc1cc(NC(C)CCCNC(=O)NCc2cc3c([nH]c4ccccc43)c(C)n2)c2ncccc2c1 (stereo not drawn) | > 50 µM
COc1cc(NC(C)CCCn2cc(Cn3c4cc(OC)ccc4c4ccnc(C)c43)nn2)c2ncccc2c1 (stereo not drawn) | > 50 µM
COc1cc(NC(C)CCCNC(=O)NCCOc2ccc3[nH]c4c(C)nccc4c3c2)c2ncccc2c1 (stereo not drawn) | 10.9 µM

Test system: HCT-116
Experiment: Antiproliferative activity against human HCT-116 cells assessed as reduction in cell viability incubated for 72 hrs by MTT assay
Format: functional, cell-based
Conditions: HCT-116, 72 h

Structure (SMILES) | IC50
COc1cc(NC(C)CCCNC(=O)NCc2cc3c([nH]c4ccccc43)c(C)n2)c2ncccc2c1 (stereo not drawn) | 27.2 µM
COc1cc(NC(C)CCCN)c2ncccc2c1 (stereo not drawn) [PRIMAQUINE] | 20.8 µM
COc1cc(NC(C)CCCn2cc(Cn3c4cc(OC)ccc4c4ccnc(C)c43)nn2)c2ncccc2c1 (stereo not drawn) | 23.2 µM
COc1cc(NC(C)CCCNC(=O)NCCOc2ccc3[nH]c4c(C)nccc4c3c2)c2ncccc2c1 (stereo not drawn) | 7.79 µM

Test system: MCF7
Experiment: Antiproliferative activity against human MCF7 cells assessed as reduction in cell viability incubated for 72 hrs by MTT assay
Format: functional, cell-based
Conditions: MCF7, 72 h

Structure (SMILES) | IC50
COc1cc(NC(C)CCCNC(=O)NCc2cc3c([nH]c4ccccc43)c(C)n2)c2ncccc2c1 (stereo not drawn) | 11.7 µM
COc1cc(NC(C)CCCN)c2ncccc2c1 (stereo not drawn) [PRIMAQUINE] | 26.6 µM
COc1cc(NC(C)CCCn2cc(Cn3c4cc(OC)ccc4c4ccnc(C)c43)nn2)c2ncccc2c1 (stereo not drawn) | 8.93 µM
COc1cc(NC(C)CCCNC(=O)NCCOc2ccc3[nH]c4c(C)nccc4c3c2)c2ncccc2c1 (stereo not drawn) | 14.2 µM

Test system: not listed separately
Experiment: Antiproliferative activity against human HEK293T cells assessed as reduction in cell viability incubated for 72 hrs by MTT assay
Format: toxicity, cell-based, HEK-293T
Conditions: not given

Structure (SMILES) | IC50 at 72 h
COc1cc(NC(C)CCCNC(=O)NCc2cc3c([nH]c4ccccc43)c(C)n2)c2ncccc2c1 (stereo not drawn) | > 50 µM
COc1cc(NC(C)CCCN)c2ncccc2c1 (stereo not drawn) [PRIMAQUINE] | 37.6 µM
COc1cc(NC(C)CCCn2cc(Cn3c4cc(OC)ccc4c4ccnc(C)c43)nn2)c2ncccc2c1 (stereo not drawn) | > 50 µM
COc1cc(NC(C)CCCNC(=O)NCCOc2ccc3[nH]c4c(C)nccc4c3c2)c2ncccc2c1 (stereo not drawn) | 12 µM

Test system: not listed separately
Experiment: Selectivity index, ratio of IC50 for antiproliferative activity against human HEK293T cells to IC50 for antiproliferative activity against human MCF7 cells
Format: toxicity, cell-based
Conditions: HEK293T cells versus MCF7 cells, read-out: Ratio IC50

Structure (SMILES) | selectivity ratio
COc1cc(NC(C)CCCNC(=O)NCc2cc3c([nH]c4ccccc43)c(C)n2)c2ncccc2c1 (stereo not drawn) | > 4.29
COc1cc(NC(C)CCCN)c2ncccc2c1 (stereo not drawn) [PRIMAQUINE] | 1.42
COc1cc(NC(C)CCCn2cc(Cn3c4cc(OC)ccc4c4ccnc(C)c43)nn2)c2ncccc2c1 (stereo not drawn) | > 5.6
COc1cc(NC(C)CCCNC(=O)NCCOc2ccc3[nH]c4c(C)nccc4c3c2)c2ncccc2c1 (stereo not drawn) | 0.84

Test system: Calf thymus DNA
Experiment: Binding affinity to calf thymus DNA assessed as binding constant by UV-Visible absorption spectroscopic analysis
Conditions: Bos taurus

Structure (SMILES) | log Ks
COc1cc(NC(C)CCCn2cc(Cn3c4cc(OC)ccc4c4ccnc(C)c43)nn2)c2ncccc2c1 (stereo not drawn) | 5.5

Test system: RNA
Experiment: Binding affinity to double stranded RNA (unknown origin) assessed as binding constant by UV-Visible absorption spectroscopic analysis
Format: nucleic-acid assay
Conditions: not given

Structure (SMILES) | log Ks
COc1cc(NC(C)CCCn2cc(Cn3c4cc(OC)ccc4c4ccnc(C)c43)nn2)c2ncccc2c1 (stereo not drawn) | 4.6

Test system: Plasmodium falciparum
Experiment: Antiplasmodial activity against erythrocytic stage of chloroquine-sensitive Plasmodium falciparum 3D7 assessed as inhibition of parasite growth incubated for 3 days by HRP2-ELISA
Format: functional, organism-based
Conditions: 3D7, 72 h

Structure (SMILES) | IC50
COc1cc(NC(C)CCCNC(=O)NCc2cc3c([nH]c4ccccc43)c(C)n2)c2ncccc2c1 (stereo not drawn) | 2.4 µM
COc1cc(NC(C)CCCN)c2ncccc2c1 (stereo not drawn) [PRIMAQUINE] | 4.87 µM
COc1cc(NC(C)CCCn2cc(Cn3c4cc(OC)ccc4c4ccnc(C)c43)nn2)c2ncccc2c1 (stereo not drawn) | 0.523 µM
COc1cc(NC(C)CCCNC(=O)NCCOc2ccc3[nH]c4c(C)nccc4c3c2)c2ncccc2c1 (stereo not drawn) | 10.7 µM

Test system: Plasmodium falciparum
Experiment: Antiplasmodial activity against erythrocytic stage of chloroquine-resistant Plasmodium falciparum Dd2 assessed as inhibition of parasite growth incubated for 3 days by HRP2-ELISA
Format: functional, organism-based
Conditions: Dd2, 72 h

Structure (SMILES) | IC50
COc1cc(NC(C)CCCNC(=O)NCc2cc3c([nH]c4ccccc43)c(C)n2)c2ncccc2c1 (stereo not drawn) | 2.35 µM
COc1cc(NC(C)CCCN)c2ncccc2c1 (stereo not drawn) [PRIMAQUINE] | 5.45 µM
COc1cc(NC(C)CCCn2cc(Cn3c4cc(OC)ccc4c4ccnc(C)c43)nn2)c2ncccc2c1 (stereo not drawn) | 0.906 µM
COc1cc(NC(C)CCCNC(=O)NCCOc2ccc3[nH]c4c(C)nccc4c3c2)c2ncccc2c1 (stereo not drawn) | 8.84 µM

Test system: not listed separately
Experiment: Selectivity index, ratio of IC50 for antiproliferative activity against human HEK293T cells to IC50 for antiplasmodial activity against erythrocytic stage of chloroquine-sensitive Plasmodium falciparum 3D7
Format: toxicity, cell-based
Conditions: read-out: Ratio IC50

Structure (SMILES) | selectivity ratio
COc1cc(NC(C)CCCNC(=O)NCc2cc3c([nH]c4ccccc43)c(C)n2)c2ncccc2c1 (stereo not drawn) | > 20.8
COc1cc(NC(C)CCCN)c2ncccc2c1 (stereo not drawn) [PRIMAQUINE] | 7.7
COc1cc(NC(C)CCCn2cc(Cn3c4cc(OC)ccc4c4ccnc(C)c43)nn2)c2ncccc2c1 (stereo not drawn) | > 95.5
COc1cc(NC(C)CCCNC(=O)NCCOc2ccc3[nH]c4c(C)nccc4c3c2)c2ncccc2c1 (stereo not drawn) | 1.1

Test system: Calf thymus DNA
Experiment: Binding affinity to calf thymus DNA assessed as thermal stabilization by thermal denaturation based UV-Visible absorption spectroscopic analysis
Conditions: Bos taurus

Structure (SMILES) | Activity
COc1cc(NC(C)CCCn2cc(Cn3c4cc(OC)ccc4c4ccnc(C)c43)nn2)c2ncccc2c1 (stereo not drawn) | inactive

Test system: Plasmodium falciparum
Experiment: Resistance index, ratio of IC50 for antiplasmodial activity against erythrocytic stage of chloroquine-resistant Plasmodium falciparum Dd2 to IC50 for antiplasmodial activity against erythrocytic stage of chloroquine-sensitive Plasmodium falciparum 3D7
Format: functional
Conditions: not given

Structure (SMILES) | Ratio IC50
COc1cc(NC(C)CCCNC(=O)NCc2cc3c([nH]c4ccccc43)c(C)n2)c2ncccc2c1 (stereo not drawn) | 0.98
COc1cc(NC(C)CCCN)c2ncccc2c1 (stereo not drawn) [PRIMAQUINE] | 1.12
COc1cc(NC(C)CCCn2cc(Cn3c4cc(OC)ccc4c4ccnc(C)c43)nn2)c2ncccc2c1 (stereo not drawn) | 1.73
COc1cc(NC(C)CCCNC(=O)NCCOc2ccc3[nH]c4c(C)nccc4c3c2)c2ncccc2c1 (stereo not drawn) | 0.83

Test system: RNA
Experiment: Binding affinity to double stranded RNA (unknown origin) assessed as thermal stabilization by thermal denaturation based UV-Visible absorption spectroscopic analysis
Format: nucleic-acid assay
Conditions: not given

Structure (SMILES) | Activity
COc1cc(NC(C)CCCn2cc(Cn3c4cc(OC)ccc4c4ccnc(C)c43)nn2)c2ncccc2c1 (stereo not drawn) | inactive

Test system: dsDNA
Experiment: Binding affinity to double stranded DNA (unknown origin) by CD spectroscopic analysis
Format: nucleic-acid assay
Conditions: not given

Structure (SMILES) | Activity
COc1cc(NC(C)CCCn2cc(Cn3c4cc(OC)ccc4c4ccnc(C)c43)nn2)c2ncccc2c1 (stereo not drawn) | inactive

Test system: RNA
Experiment: Binding affinity to double stranded RNA (unknown origin) by CD spectroscopic analysis
Format: nucleic-acid assay
Conditions: not given

Structure (SMILES) | Activity
COc1cc(NC(C)CCCn2cc(Cn3c4cc(OC)ccc4c4ccnc(C)c43)nn2)c2ncccc2c1 (stereo not drawn) | inactive

Test system: not listed separately
Experiment: Drug uptake in human MCF7 cells at 10 uM incubated for 30 mins by fluorescence microscopic analysis
Format: ADME, cell-based
Conditions: mcf7, 0.5 h

Structure (SMILES) | Drug uptake
COc1cc(NC(C)CCCn2cc(Cn3c4cc(OC)ccc4c4ccnc(C)c43)nn2)c2ncccc2c1 (stereo not drawn) | Active

Test system: MCF7
Experiment: Induction of cell cycle arrest in human MCF7 cells assessed as increase in accumulation of cells at G1 phase at 4.5 uM measured upto 48 hrs by propidium iodide/RNAse A staining based cell sorter analysis
Format: functional
Conditions: not given

Structure (SMILES) | Activity
COc1cc(NC(C)CCCn2cc(Cn3c4cc(OC)ccc4c4ccnc(C)c43)nn2)c2ncccc2c1 (stereo not drawn) | Active

Test system: MCF7
Experiment: Induction of cell cycle arrest in human MCF7 cells assessed as increase in accumulation of cells at G2/M phase at 4.5 uM measured upto 48 hrs by propidium iodide/RNAse A staining based cell sorter analysis
Format: functional
Conditions: not given

Structure (SMILES) | Activity
COc1cc(NC(C)CCCn2cc(Cn3c4cc(OC)ccc4c4ccnc(C)c43)nn2)c2ncccc2c1 (stereo not drawn) | inactive

Test system: Plasmodium berghei
Experiment: Antiplasmodial activity against hepatic stage of Plasmodium berghei sporozoites infected in human Huh-7 cells assessed as reduction in parasite growth at 1 uM incubated for 1 hr by bioluminescence assay
Format: functional, organism-based
Conditions: not given

Structure (SMILES) | Activity
COc1cc(NC(C)CCCn2cc(Cn3c4cc(OC)ccc4c4ccnc(C)c43)nn2)c2ncccc2c1 (stereo not drawn) | Active

Test system: Plasmodium berghei
Experiment: Antiplasmodial activity against hepatic stage of Plasmodium berghei sporozoites infected in human Huh-7 cells assessed as reduction in parasite growth at 10 uM incubated for 1 hr by bioluminescence assay
Format: functional, organism-based
Conditions: not given

Structure (SMILES) | Activity
COc1cc(NC(C)CCCn2cc(Cn3c4cc(OC)ccc4c4ccnc(C)c43)nn2)c2ncccc2c1 (stereo not drawn) | Active

Test system: Plasmodium berghei
Experiment: Antiplasmodial activity against hepatic stage of Plasmodium berghei sporozoites infected in human Huh-7 cells assessed as inhibition of parasite growth incubated for 1 hr by bioluminescence assay
Format: functional, organism-based
Conditions: Huh-7, 1 h

Structure (SMILES) | IC50
COc1cc(NC(C)CCCn2cc(Cn3c4cc(OC)ccc4c4ccnc(C)c43)nn2)c2ncccc2c1 (stereo not drawn) | 1.46 µM

Test system: dsDNA
Experiment: Binding affinity to double stranded DNA (unknown origin) assessed as increase in fluorescence intensity by fluorescence quenching analysis
Format: nucleic-acid assay
Conditions: not given

Structure (SMILES) | Activity
COc1cc(NC(C)CCCn2cc(Cn3c4cc(OC)ccc4c4ccnc(C)c43)nn2)c2ncccc2c1 (stereo not drawn) | Active

Test system: RNA
Experiment: Binding affinity to double stranded RNA (unknown origin) assessed as increase in fluorescence intensity by fluorescence quenching analysis
Format: nucleic-acid assay
Conditions: not given

Structure (SMILES) | Activity
COc1cc(NC(C)CCCn2cc(Cn3c4cc(OC)ccc4c4ccnc(C)c43)nn2)c2ncccc2c1 (stereo not drawn) | Active
